Laboratory results as given in patent publication US20250049749A1, “COMPOSITION FOR IMPROVING SLEEP QUALITY OR CONTROLLING AUTONOMIC NERVOUS SYSTEM” (OTSUKA PHARMACEUTICAL CO., LTD., priority 2021, published 2025).
“Also recorded” adds a separate entry of the source.

Columns and labels:
Assay type in all cases: in vivo, human
athletes = experiment: Test 2: athlete questionnaire (0 to 10) and comments before and on day 30 of intake
Experimental: The following tests were carried out to investigate the functions of kaempferol. [table] [table] In addition to the above score evaluations, an optional evaluation of the mental and physical state after intake of the test sample as compared to that before the intake was obtained in the form of comments.

[1] = system: healthy adult men and women; experiment: Test 1: randomized, double-blind, placebo-controlled, crossover comparative test (sleep and autonomic nervous system, Fitbit Charge 4)
Experimental: A randomized, double-blind, placebo-controlled, crossover comparative test as summarized in the table below was conducted to examine the relationship between kaempferol, sleep, and the autonomic nervous system.
The granular foods used in the test were prepared according to the following procedure. Horseradish leaves were extracted twice with 50% aqueous ethanol at 50° C. and concentrated under reduced pressure. The concentrate was purified with resin to obtain a solution. Hemicellulase “Amano” 90 and Lactase F “Amano” (produced by Amano Enzyme, Inc.) were added to the solution to allow the enzyme to act thereon while stirring at 50° C. The resulting reaction liquid was then heated to 80° C. and maintained for 20 minutes to inactivate the enzyme. The resulting treated liquid was then freeze-dried to give an ethanol extract powder. This powder was combined with an equal amount (on a weight basis) of starch and erythritol and mixed into granules. The granules were packed in aluminum pouches in an amount of 116 mg (containing 10 mg of kaempferol) per pouch. The subjects ingested the contents of one pouch at one time (10 mg of kaempferol in total). The food used as a placebo was granules of starch and erythritol.
The sleep score is an index of sleep quality on a scale of 0 to 100, with a score of 90 to 100 indicating very good sleep quality, a score of 80 to 89 indicating good sleep quality, a score of 60 to 79 indicating slightly low sleep quality, and a score of 60 or less indicating low sleep quality. The sleeping heart rate is known to correlate with sleep quality. Specifically, it has been reported that the higher the heart rate during sleep, the less satisfactory the sleep obtained is (i.e., the quality of sleep is low) (see Non-Patent Literature (NPL) 1). […] This is generally consistent with the difference between the average sleeping heart rate in people with good quality sleep and that in people with poor sleep quality (FIG. 3 in NPL 1).
RMSSD is the square root of the mean squared differences of successive adjacent R-R intervals (interval from one QRS wave to the next QRS wave) and is an index of vagal tone intensity. A rise in RMSSD indicates increased parasympathetic activity or decreased sympathetic activity. […] According to the formula shown in FIG. 2 (right), KMP intake is considered to rejuvenate the age of autonomic nervous system function by 16.3 years.
The LF/HF ratio is a ratio of low frequency (LF) to high frequency (HF) power and represents the overall balance between the sympathetic nervous system and the parasympathetic nervous system. A higher LF/HF ratio indicates a state of sympathetic nervous system dominance, whereas a lower LF/HF ratio indicates parasympathetic nervous system dominance. […] According to the formula shown in FIG. 3 (right), KMP intake is considered to rejuvenate the age of autonomic nervous system function by 5.8 years.

[2] = system: persons with meteoropathy; experiment: Test 3: meteoropathy symptom questionnaire before and after start of intake
Experimental: The test shown below was conducted to investigate the functions of kaempferol associated with meteoropathy. [table]

[3] = 10 mg KMP once a day, day 30 vs before intake, FIG. 4, FIG. 5
[4] = all subjects (159 athletes), 10 mg KMP once a day, day 30 vs before intake, FIG. 4
[5] = optional comment of a single subject, state after intake of the test sample vs before
[6] = swimmers (50 persons), day 30 vs before intake, FIG. 5
[7] = 10 mg KMP once a day, two weeks, vs placebo, FIG. 1
[8] = all symptoms, during KMP intake vs before, FIG. 7

SMILES: O=c1c(O)c(-c2ccc(O)cc2)oc2cc(O)cc(O)c12 [KMP, kaempferol]
- Achievement of exercise performance (athletes; [3]): useful
- Fatigue alleviation (athletes; [3]): useful
- Improvement of endurance (improved shortness of breath) (athletes; [3]): useful
- Recovery from fatigue (athletes; [3]): useful
- Ease in sleep (questionnaire score) (athletes; [4]): significant improvement
- Ease in waking up (questionnaire score) (athletes; [4]): significant improvement
- Comments relating to menstruation (athletes; [5]): Menstrual pain has been relieved. Menstrual cycle; also recorded: irregularities has been improved; also recorded: Menstrual pain has been relieved and abdominal; also recorded: Swollen feet before menstruation has been relieved; also recorded: has come naturally; also recorded: returned to normal
- Comments relating to mental state (athletes; [5]): Have more motivation to practice; also recorded: Feel more highly motivated before a competition; also recorded: Feel more positive; also recorded: More mentally stable; also recorded: No longer feel depressed; also recorded: Feel less tired and more motivated to practice; also recorded: Feel better during practice; also recorded: Have become able to run more calmly than usual; also recorded: Feel more comfortable during running; also recorded: Feel more relaxed both during and outside of practice
- Other comments (athletes; [5]): The time taken to get rid of jet lag was reduced; also recorded: The symptoms of seasonal colds were not seen; also recorded: Stools have improved; also recorded: Bowel movements have improved; also recorded: Healing from injuries is faster; also recorded: Healing of fractures is much faster; also recorded: Healing of wounds after tooth extraction is faster; also recorded: Easier body weight loss; also recorded: Easier to control body weight gain; also recorded: Have improved concentration; also recorded: Symptoms of jet lag were alleviated
- Ease in sleep (questionnaire score), improvement in swimmers (athletes; [6]): particularly prominent
- Ease in waking up (questionnaire score), improvement in swimmers (athletes; [6]): particularly prominent
- Reduction of sleeping heart rate on average [1, 7]: 3.5 bpm
- Sleep duration [1, 7]: no significant change
- Sleeping heart rate [1, 7]: significantly reduces
- RMSSD during sleep ([1]; 10 mg KMP once a day, two weeks, vs placebo, FIG. 2 (left)): increase in RMSSD value
- LF/HF ratio during sleep ([1]; 10 mg KMP once a day, two weeks, vs placebo, FIG. 3 (left)): reduces the LF/HF ratio
- Rejuvenation of the age of autonomic nervous system function (from RMSSD vs age formula) ([1]; according to the formula shown in FIG. 2 (right)): 16.3 years
- Rejuvenation of the age of autonomic nervous system function (from LF/HF ratio vs age formula) ([1]; according to the formula shown in FIG. 3 (right)): 5.8 years
- Sleep score ([1]; granular food with 10 mg KMP once a day after breakfast, two weeks, vs placebo, 34 subjects, scale 0 to 100, FIG. 1): significantly improves
- Effect on meteoropathy overall ([2]; 10 mg KMP once a day, 4 consecutive weeks): effective in the treatment and improvement of meteoropathy
- Frequency of occurrence of each symptom of meteoropathy ([2]; all 12 symptoms (stiff shoulders and neck, fatigue, lassitude, headache, overall ill health, irritation, depressed mood, inability to think straight, lower back pain, lethargy, anxiety, joint pain), 10 mg KMP once a day, 4 weeks, vs before intake, 393 subjects, FIG. 6): significantly reduces
- Degree of each symptom of meteoropathy (0-10 point scale) ([2]; all 12 symptoms, KMP intake vs before intake, FIG. 8): significantly alleviated
- Duration of each symptom of meteoropathy [2, 8]: significantly reduced duration
- Proportion of no occurrence of the symptom [2, 8]: increased proportion of no occurrence
